Source: patent publication US8013006B2
Where two headings read alike, the source gives them in different places.

Test system: HCV replicon
Test: microbe, parasite or virus in culture
Type: cell-based
Conditions: read-out: Replicon IC5Os
[1] = Replicon IC50 values are determined by firefly luciferase signal, bicistronic replicon, 2 days

SMILES | IC50 [1] [nM] | IC50 (Hepatitis C virus, 48 h) [nM]
CCOC(=O)Nc1cccc(-c2c(C#N)c3ccc(OCCCn4cncn4)cc3n2CC)c1 [Compound 441] | 500 to 2000 | 
CCn1c(-c2ccc(NC(=O)NCCCCl)cc2)c(C#N)c2ccc(OC)cc21 [Compound 443] | > 2000 | 
CCn1c(-c2ccc(NC(=O)NCCc3ccccc3)cc2)c(C#N)c2ccc(OC)cc21 [Compound 444] | > 2000 | 
CCn1c(-c2ccc(NC(=O)Nc3ccc(C(C)C)cc3)cc2)c(C#N)c2ccc(OC)cc21 [Compound 445] |  | 500 to 2000
CCn1c(-c2ccc(NC(=O)Nc3ccc(Oc4ccccc4)cc3)cc2)c(C#N)c2ccc(OC)cc21 [Compound 446] | > 2000 | 
CCOC(=O)Nc1cccc(-c2c(C#N)c3ccc(OCCCCl)cc3n2CC)c1 [Compound 447] |  | < 500
CCn1c(-c2ccc(NS(=O)(=O)c3cn(C)cn3)cc2)c(C#N)c2ccc(OC)cc21 [Compound 448] | > 2000 | 
CCn1c(-c2ccc(NS(=O)(=O)c3ccc(N4CCOCC4)nc3)cc2)c(C#N)c2ccc(OC)cc21 [Compound 449] | > 2000 | 
CCOC(=O)Nc1ccc(-c2c(C#N)c3ccc(C(F)(F)F)cc3n2CC)cc1 [Compound 450] | 500 to 2000 | 
CCn1c(-c2ccc(NS(=O)(=O)c3cccs3)cc2)c(C#N)c2ccc(OC)cc21 [Compound 451] | > 2000 | 
CCn1c(-c2ccc(NS(=O)(=O)c3cccc4cccnc34)cc2)c(C#N)c2ccc(OC)cc21 [Compound 452] | > 2000 | 
CCCOC(=O)Nc1ccc(-c2c(C#N)c3ccc(C(F)(F)F)cc3n2CC)cc1 [Compound 453] | 500 to 2000 | 
CCn1c(-c2ccc(NC(=O)OCc3ccccc3)cc2)c(C#N)c2ccc(C(F)(F)F)cc21 [Compound 457] | 500 to 2000 | 
CCn1c(-c2ccc(N)cc2)c(C#N)c2cc(-c3cccc(OC)c3)ccc21 [Compound 459] | 500 to 2000 | 
CCn1c(-c2cccc(N)c2)c(C#N)c2cc(-c3cccc(OC)c3)ccc21 [Compound 460] | 500 to 2000 | 
CCOc1ccc2cc(-c3ccc(NS(=O)(=O)CC)cc3)n(CC(C)C)c2c1 [Compound 465] | > 2000 | 
CCOc1ccc2cc(-c3ccc(NS(C)(=O)=O)cc3)n(C3CCC3)c2c1 [Compound 466] | 500 to 2000 | 
CCOc1ccc2cc(-c3ccc(NS(=O)(=O)CC)cc3)n(C3CCC3)c2c1 [Compound 467] | 500 to 2000 | 
CCS(=O)(=O)Nc1ccc(-c2c(C#N)c3ccc(OC)cc3n2C(C)C)cc1 [Compound 468] | < 500 | 
CCn1c(-c2ccc(N)cc2)c(C#N)c2ccc(OCCCl)cc21 [Compound 476] | 500 to 2000 | 
CCn1c(-c2ccc(NS(C)(=O)=O)cc2)c(C#N)c2ccc(OCCN3CCCCC3)cc21 [Compound 479] | > 2000 | 

SMILES | IC50 [1] [nM] | IC50 (Hepatitis C virus, 48 h) [nM]
CCn1c(-c2ccc(NS(C)(=O)=O)cc2)c(C#N)c2ccc(OCCN3CCN(C)CC3)cc21 [Compound 481] | > 2000 | 
CCn1c(-c2ccc(NS(C)(=O)=O)cc2)c(C#N)c2ccc(OCCN(C)CCOC)cc21 [Compound 482] | 500 to 2000 | 
CCn1c(-c2cccc(N)c2)c(C#N)c2cc(OC)ccc21 [Compound 483] | > 2000 | 
CCn1c(-c2nc3ccccc3s2)c(C#N)c2ccc(OC)cc21 [Compound 484] | > 2000 | 
CCOC(=O)Nc1cccc(-c2c(C#N)c3cc(-c4cccc(OC)c4)ccc3n2CC)c1 [Compound 485] | > 2000 | 
CCCOC(=O)Nc1cccc(-c2c(C#N)c3cc(-c4cccc(OC)c4)ccc3n2CC)c1 [Compound 486] | 500 to 2000 | 
CCn1c(-c2ccc(NS(C)(=O)=O)cc2)c(C#N)c2cc(-c3cccc(OC)c3)ccc21 [Compound 487] | 500 to 2000 | 
CCn1c(-c2ccc(NS(=O)(=O)CC)cc2)c(C#N)c2cc(-c3cccc(OC)c3)ccc21 [Compound 488] | < 500 | 
CCn1c(-c2cccc(NC(=O)OCC3CCCC3)c2)c(C#N)c2ccc(OC)cc21 [Compound 489] | 500 to 2000 | 
CCn1c(-c2cccc(NC(=O)OC3CCCC3)c2)c(C#N)c2ccc(OC)cc21 [Compound 490] | 500 to 2000 | 
CCOC(=O)Nc1cccc(-c2c(C#N)c3ccc(OCCn4cncn4)cc3n2CC)c1 [Compound 491] | > 2000 | 
CCOC(=O)Nc1cccc(-c2c(C#N)c3ccc(OCCN4CCOCC4)cc3n2CC)c1 [Compound 492] |  | 500 to 2000
CCOC(=O)Nc1cccc(-c2c(C#N)c3ccc(OCCCN4CCOCC4)cc3n2CC)c1 [Compound 493] |  | < 500
CCOC(=O)Nc1cccc(-c2[nH]c3cc(OC)ccc3c2C#N)c1 [Compound 494] | > 2000 | 
CCn1c(-c2ccc(NS(C)(=O)=O)cc2)c(C#N)c2ccc(OCCn3ccnc3)cc21 [Compound 496] | 500 to 2000 | 
CCn1c(-c2ccc(NS(C)(=O)=O)cc2)c(C#N)c2ccc(OCCn3cncn3)cc21 [Compound 497] | > 2000 | 
CCn1c(-c2cccc(NC(=O)OCc3ccc(C(C)C)cc3)c2)c(C#N)c2ccc(OC)cc21 [Compound 500] | > 2000 | 
CCn1c(-c2cccc(NC(=O)OC3CCOC3)c2)c(C#N)c2ccc(OC)cc21 (stereo not drawn) [Compound 502] | > 2000 | 
CCn1c(-c2cccc(NC(=O)O[C@@H]3CCOC3)c2)c(C#N)c2ccc(OC)cc21 [Compound 503] | > 2000 | 
CCOC(=O)Nc1cccc(-c2c(C#N)c3ccc(OCCCl)cc3n2CC)c1 [Compound 504] | > 2000 | 
CCn1c(-c2cccc(NS(=O)(=O)CC)c2)c(C#N)c2cc(OC)ccc21 [Compound 505] | > 2000 | 

SMILES | IC50 [1] [nM] | IC50 (Hepatitis C virus, 48 h) [nM]
CCOC(=O)Nc1cccc(-c2c(C#N)c3cc(OC)ccc3n2CC)c1 [Compound 506] | > 2000 | 
CCn1c(-c2cccc(NC(=O)OC(C)C)c2)c(C#N)c2cc(OC)ccc21 [Compound 507] | > 2000 | 
CCCOC(=O)Nc1cccc(-c2c(C#N)c3cc(OC)ccc3n2CC)c1 [Compound 508] | > 2000 | 
CCn1c(-c2cccc(NC(=O)OCCCCl)c2)c(C#N)c2cc(OC)ccc21 [Compound 509] | > 2000 | 
CCCNC(=O)Nc1cccc(-c2c(C#N)c3cc(OC)ccc3n2CC)c1 [Compound 511] | > 2000 | 
CCOC(=O)NC(=O)Nc1cccc(-c2c(C#N)c3cc(OC)ccc3n2CC)c1 [Compound 512] | > 2000 | 
CCn1c(-c2cccc(NC(=O)Nc3cccc(C(F)(F)F)c3)c2)c(C#N)c2cc(OC)ccc21 [Compound 513] | > 2000 | 
CCn1c(NC)c(C#N)c2ccc(C(F)(F)F)cc21 [Compound 514] | > 2000 | 
CCS(=O)(=O)Nc1ccc(-c2cc3ccc(OC(F)F)cc3n2C)cc1 [Compound 515] | 500 to 2000 | 
CCS(=O)(=O)Nc1ccc(-c2cc3ccc(OC(F)F)cc3n2C(C)C)cc1 [Compound 517] | > 2000 | 
CCCn1c(-c2ccc(NS(=O)(=O)CC)cc2)c(C#N)c2ccc(OC(F)F)cc21 [Compound 522] | < 500 | 
CCS(=O)(=O)Nc1ccc(-c2c(C#N)c3ccc(OC(F)F)cc3n2C(C)C)cc1 [Compound 524] | < 500 | 
CCOC(=O)Nc1cccc(-c2c(C#N)c3ccc(OCCCn4ccnc4)cc3n2CC)c1 [Compound 525] |  | 500 to 2000
CCOC(=O)Nc1cccc(-c2c(C#N)c3ccc(OCCCN4CCN(C)CC4)cc3n2CC)c1 [Compound 526] |  | < 500
CCOC(=O)Nc1cccc(-c2c(C#N)c3ccc(OCCCN4CCSCC4)cc3n2CC)c1 [Compound 527] | 500 to 2000 | 
CCOC(=O)Nc1cccc(-c2c(C#N)c3ccc(OCCCN4CCCCC4)cc3n2CC)c1 [Compound 528] | 500 to 2000 | 
CCOC(=O)Nc1cccc(-c2c(C#N)c3ccc(OCCCn4ccnn4)cc3n2CC)c1 [Compound 529] | 500 to 2000 | 
CCOC(=O)Nc1cccc(-c2c(C#N)c3ccc(OCCCN(C)CCOC)cc3n2CC)c1 [Compound 531] |  | 500 to 2000
CCOC(=O)Nc1ccc(-c2c(C#N)c3ccc(OCCCn4ccnc4)cc3n2CC)cc1 [Compound 532] |  | 500 to 2000
CCOC(=O)Nc1ccc(-c2c(C#N)c3ccc(OCCCN4CCN(C)CC4)cc3n2CC)cc1 [Compound 533] |  | 500 to 2000
CCOC(=O)Nc1ccc(-c2c(C#N)c3ccc(OCCCN4CCSCC4)cc3n2CC)cc1 [Compound 534] |  | < 500

SMILES | IC50 [1] [nM] | IC50 (Hepatitis C virus, 48 h) [nM]
CCOC(=O)Nc1ccc(-c2c(C#N)c3ccc(OCCCN4CCCCC4)cc3n2CC)cc1 [Compound 535] |  | < 500
CCOC(=O)Nc1ccc(-c2c(C#N)c3ccc(OCCCn4ccnn4)cc3n2CC)cc1 [Compound 536] |  | 500 to 2000
CCOC(=O)Nc1ccc(-c2c(C#N)c3ccc(OCCCN4CCCC4)cc3n2CC)cc1 [Compound 537] |  | < 500
CCOC(=O)Nc1ccc(-c2c(C#N)c3ccc(OCCCn4cncn4)cc3n2CC)cc1 [Compound 538] |  | 500 to 2000
CCOC(=O)Nc1ccc(-c2c(C#N)c3ccc(OCCCN4CCOCC4)cc3n2CC)cc1 [Compound 539] |  | < 500
CCn1c(-c2cccc(NS(=O)(=O)NC)c2)c(C#N)c2ccc(OC)cc21 [Compound 540] | 500 to 2000 | 
CCNS(=O)(=O)Nc1cccc(-c2c(C#N)c3ccc(OC)cc3n2CC)c1 [Compound 541] | > 2000 | 
CCCOC(=O)Nc1ccc(-c2c(C#N)c3ccc(OCCF)cc3n2CC)cc1 [Compound 547] | < 500 | 
COc1ccc2c(C#N)c(-c3cccc(NC(=O)OCCCl)c3)n(C(C)C)c2c1 [Compound 553] | > 2000 | 
C#CCOC(=O)Nc1cccc(-c2c(C#N)c3ccc(OC)cc3n2C(C)C)c1 [Compound 554] | > 2000 | 
COCCOC(=O)Nc1cccc(-c2c(C#N)c3ccc(OC)cc3n2C(C)C)c1 [Compound 555] | > 2000 | 
COc1ccc2c(C#N)c(-c3cccc(NC(=O)OCc4ccccc4)c3)n(C(C)C)c2c1 [Compound 556] | > 2000 | 
COc1ccc(OC(=O)Nc2cccc(-c3c(C#N)c4ccc(OC)cc4n3C(C)C)c2)cc1 [Compound 557] | 500 to 2000 | 
CCn1c(-c2cccc(NC(=O)CCl)c2)c(C#N)c2ccc(C(F)(F)F)cc21 [Compound 558] | 500 to 2000 | 
CCC(=O)Nc1cccc(-c2c(C#N)c3ccc(C(F)(F)F)cc3n2CC)c1 [Compound 559] | > 2000 | 
CCn1c(-c2cccc(NC(=O)c3ccccc3)c2)c(C#N)c2ccc(C(F)(F)F)cc21 [Compound 560] | > 2000 | 
CCn1c(-c2cccc(NC(=O)C3CC3)c2)c(C#N)c2ccc(C(F)(F)F)cc21 [Compound 561] | > 2000 | 
C=CS(=O)(=O)Nc1cccc(-c2c(C#N)c3ccc(C(F)(F)F)cc3n2CC)c1 [Compound 562] |  | < 500
